Experimental data published in patent US20110296540A1, “ASSAY FOR SCREENING ANTIDEPRESSANTS” (priority 2008, published 2011).
Like-named read-outs stand apart in the source and are kept apart here.

Columns and labels:
[1] = system: β-arrestin 2 knock out mice (S129/Sv×C57BL/6); assay: Open Field paradigm in β-arrestin 2 knock out mice and littermates; format: in vivo
Text: Adult male C57BL/6Ntac mice were purchased from Taconic Farms (Germantown, N.Y., USA; Lille Skensved, Denmark). Male heterozygous β-arrestin 2+/− and heterozygous female mutant β-arrestin+/− mice (age 4-6 months, 25-30 g body weight) were bred on a mixed S129/Sv×C57BL/6 genetic background raised at the animal facility of Columbia University (New York, USA). […] Food and water were provided ad libitum. Behavioral testing occurred during the light phase between 0700 and 1900 for the OF, NSF and FST, splash test.
For all the studies, control mice received β-CD.
Motor activity was quantified in four Plexiglas open field boxes 43 times 43 cm2 (MED Associates, Georgia, Vt.). Two sets of 16 pulse-modulated infrared photobeams were placed on opposite walls 2.5-cm apart to record x-y ambulatory movements. Activity chambers were computer interfaced for data sampling at 100-ms resolution. The computer defined grid lines that divided each Open Field into center and surround regions, with each of four lines being 11 cm from each wall. Dependent measures in the center were the total time and the number of entries over a 30-min period of test. The whole session was also divided in 5 periods to analyze the time spent in the center every 5 min. The overall motor activity was quantified as the total distance traveled (cm) or distance traveled in the center divided by total distance traveled.

[2] = system: doublecortin positive cells; assay: Doublecortin (DCX) labeling for maturation index study, corticosterone model; format: in vivo, mice
Text: The secondary antibody was biotinylated donkey anti-goat (1:500) (Jackson ImmunoResearch, West Grove, Pa.) in PBS for 2 hr at room temperature. Sections were developed using avidin-biotin complex (Vector, USA) and DAB kit.

HPA axis = assay: Stress evoked increase of corticosterone levels; format: in vivo, mice; conditions: acute swim stress; baseline conditions and after chronic corticosterone treatment
Method: Adult male C57BL/6Ntac mice were exposed to a 6 minutes swim stress. […]. Blood was collected into ice-chilled tubes containing EDTA and centrifuged at 3000 rpm for 10 min (at 4° C.) for separation of plasma, and plasma samples were stored at −80° C. until assayed. […]; Diagnostic Systems Laboratories, Inc. Webster, Tex.; sensitivity limit: 20 ng/ml). ACTH was measured directly in plasma using an ImmuChem™ Double Antibody hACTH 1251 RIA kit (No. 07-106101; MP Biomedicals, LLC, Orangeburg, N.Y.) with a sensitivity limit ˜5.7 pg/ml. All samples were measured simultaneously to reduce inter-assay variability.

[3] = system: DCX+ immature granule cells; assay: DCX immunohistochemistry: number, dendritic morphology and Sholl analysis of immature granule cells; format: in vivo, mice
Method: Immunohistochemistry and confocal imaging. Mice were anesthetized with ketamine/xylazine (100 and 7 mg/kg, respectively) and transcardially perfused (cold saline, followed by 4% cold paraformaldehyde in PBS). […] Immunohistochemistry was performed in the following steps: 2 h incubation in 1:1 formamide/2×SSC at 65° C., 5 min rinse in 2×SSC, 30 min incubation in 2N HCl at 37° C., and 10 min rinse in 0.1M boric acid, pH 8.5, 2 h incubation in 0.1M PBS with 0.3% Triton X-100, and 5% normal donkey serum. Sections were then incubated overnight at 4° C. in primary antibodies for doublecortin (goat; 1:500; Santa Cruz Biotechnology, Santa Cruz, Calif.), bromodeoxyuridine (BrdU; rat; 1:100; Serotec, Oxford, UK), and neuronal-specific nuclear protein (NeuN) (mouse; 1:500; Chemicon, Temecula, Calif.). Biotinylated or fluorescent secondary antibodies were used. All secondary antibodies were purchased from Jackson ImmunoResearch (West Grove, Pa.). DCX staining for Sholl analysis was done as follows: sections were rinsed in PBS, treated with 1% H2O2 in 1:1 PBS and methanol for 15 min to quench endogenous peroxidase activity (and to enhance dendritic staining), incubated in 10% normal donkey serum and 0.3% Triton X-100 for 30 min, and then incubated overnight at 4° C. in primary antibody for doublecortin. After secondary antibody incubation, sections were developed using Vector ABC kit and DAB kit. Bright-field images were taken with a Zeiss (Oberkochen, Germany) Axioplan-2 upright microscope. Stereological procedure was used to quantify labeled cells (Malberg et al., 2000 ? ). All cell counting for triple-stained sections were done using a Zeiss LSM 510 META confocal microscope.
Sholl analysis. DCX-positive (DCX^+) granule cells with tertiary, relatively untruncated dendritic branches or BrdU/DCX double-positive cells (one DCX^+ cell was traced for each […] hippocampal slice; n=10-12 cells per brain for DAB-stained sections; n=4-8 cells per brain for fluorescent staining, 5 mice per group) were traced using camera lucida at 40× magnification (Neurolucida; MicroBrightField, Williston, Vt.). Adult SvEvTac129 mice (16-20 weeks old) were used to obtain sparsely labeled DCX^+ cells. DCX immunohistochemistry was done to maximize the labeling of dendrites (see above methods). Sholl analysis for dendritic complexity was performed using the accompanying software (NeuroExplorer; MicroBrightField), calculating dendritic complexity including dendritic length and number of intersections (branch points). All samples were number coded, and analysis was done blind to treatment.
Next, the DCX^+ cells were subcategorized according to their dendritic morphology: (1) DCX^+ cells with no tertiary dendritic processes (FIG. 2A), and (2) DCX^+ cells with complex, tertiary dendrites (FIG. 2B). […] The results are mean±SEM of DCX^+ cells with tertiary branches.
Double fluorescent immunohistochemistry for BrdU and DCX were performed on hippocampal sections. BrdU cells that were also DCX' were identified and then Sholl analysis on the double-positive cells was performed (FIG. 3 D-G).

Text for C57BL/6Ntac mice: The novelty suppressed feeding paradigm (NSF) is a conflict test that elicits competing motivations: the drive to eat and the fear of venturing into the center of brightly lit arena. […] Briefly, the testing apparatus consisted of a plastic box (50×50×20 cm), the floor of which was covered with approximately 2 cm of wooden bedding. Twenty-four hours prior to behavioral testing, all food was removed from the home cage. At the time of testing, a single pellet of food (regular chow) was placed on a white paper platform positioned in the center of the box. An animal was placed in a corner of the box, and a stopwatch was immediately started. The latency to eat (defined as the mouse sitting on its haunches and biting the pellet with the use of forepaws) was timed. Immediately afterwards, the animal was transferred to its home cage, and the amount of food consumed by the mouse in the subsequent 5 min was measured, serving as a control for change in appetite as a possible confounding factor. Each mouse was weighed before food deprivation and before testing to assess the percentage of body weight loss (data not shown).
Mice were anesthetized with ketamine and xylazine (100 mg/ml ketamine; 20 mg/ml xylazine), placed in a stereotaxic frame and exposed to cranial irradiation using a Siemens Stabilopan X-ray system operated at 300 kVp and 20 mA. […] Dosimetry was done using a Capintec Model PR06G electrometer ionization chamber and Kodak Readypack Radiographic XV films. The corrected dose rate was approximately 1.8 Gy per min at a source to skin distance of 30 cm. The procedure lasted 2 min and 47 sec, delivering a total of 5 Gy. Three 5 Gy doses were delivered on days 1, 4 and 8.

Structure (SMILES): CNCCC(Oc1ccc(C(F)(F)F)cc1)c1ccccc1 (centres unmarked) [fluoxetine]
- total number of entries in the center (Open Field) ([1]; wild-type animals, 4 weeks fluoxetine): increased
- time spent in the center (Open Field) ([1]; wild-type animals, 4 weeks fluoxetine 18 mg/kg/day): increased
- effect of fluoxetine on time spent in the center (Open Field) ([1]; β-arrestin 2 knock out mice): abolished
- total ambulatory distance (Open Field) ([1]; β-arrestin 2 knock out mice): absence of effects
- total number of entries in the center (Open Field) ([1]; β-arrestin 2 knock out mice): absence of effects
- effects of fluoxetine to reverse the anxiety/depressive-like state in the NSF paradigm (C57BL/6Ntac mice; after hippocampal irradiation, chronic corticosterone): completely abolished
- corticosterone-induced change in the latency to feed (NSF) (C57BL/6Ntac mice; chronic fluoxetine 18 or imipramine 40 mg/kg/day in corticosterone-treated mice): reversed
- latency to feed (NSF) (C57BL/6Ntac mice; irradiated corticosterone/fluoxetine group): 546.2 s
- latency to feed (NSF) (C57BL/6Ntac mice; sham corticosterone/fluoxetine group): 371.3 s
- number of doublecortin positive cells with tertiary dendrites ([2]; chronic fluoxetine, control animals): increased
- effect of fluoxetine on the number of doublecortin positive cells and their dendritic morphology ([2]; in the presence of corticosterone, compared with controls): even more pronounced
- stress induced corticosterone levels (HPA axis): had no effect
- dendritic length of DCX+ cells (Sholl analysis) ([3]; chronic (28 d)): increased
- number of DCX+ cells with tertiary dendrites ([3]; chronic (28 d)): significantly increased
- number of intersections of DCX+ cells (Sholl analysis) ([3]; chronic (28 d)): increased
- dendritic length in 3-week-old granule cells (BrdU/DCX double-positive) ([3]; three weeks of fluoxetine): enhanced
- number of intersections in 3-week-old granule cells (BrdU/DCX double-positive) ([3]; three weeks of fluoxetine): enhanced
